Results from patent US7803942B2, “Crystals of morphinan derivative and process for producing the same” (Toray Industries, Inc., priority 2005, dated 2010).

Experiment: pH of aqueous solution after production (Test Example 2)
Assay type: physicochemical
Conditions: 100 mg dissolved in 10 mL of decarbonated water; pH reproducibility after production; hydrochloride
Description: There was taken 100 mg each of the amorphous powders obtained in Reference Examples 1 to 3 and the A-form crystals obtained in Examples 1 to 3, to which 10 mL of decarbonated water was added for dissolution, followed by measuring the pH.

Row | SMILES | pH
1 | CN(C(=O)/C=C/c1ccoc1)[C@@H]1CC[C@@]2(O)[C@H]3Cc4ccc(O)c5c4[C@@]2(CCN3CC2CC2)[C@H]1O5.Cl [Example 3, 17-cyclopropylmethyl-3,14β-dihydroxy-4,5α-epoxy-6β-[N-methyl-trans-3-(3-furyl)acrylamido]morphinan hydrochloride] | 5.6
2 | CN(C(=O)/C=C/c1ccoc1)[C@@H]1CC[C@@]2(O)[C@H]3Cc4ccc(O)c5c4[C@@]2(CCN3CC2CC2)[C@H]1O5.Cl [Reference Example 2, 17-cyclopropylmethyl-3,14β-dihydroxy-4,5α-epoxy-6β-[N-methyl-trans-3-(3-furyl)acrylamido]morphinan hydrochloride] | 4.7
3 | CN(C(=O)/C=C/c1ccoc1)[C@@H]1CC[C@@]2(O)[C@H]3Cc4ccc(O)c5c4[C@@]2(CCN3CC2CC2)[C@H]1O5.Cl [Reference Example 3, 17-cyclopropylmethyl-3,14β-dihydroxy-4,5α-epoxy-6β-[N-methyl-trans-3-(3-furyl)acrylamido]morphinan hydrochloride] | 3.5
4 | CN(C(=O)/C=C/c1ccoc1)[C@@H]1CC[C@@]2(O)[C@H]3Cc4ccc(O)c5c4[C@@]2(CCN3CC2CC2)[C@H]1O5.Cl [Example 1, 17-cyclopropylmethyl-3,14β-dihydroxy-4,5α-epoxy-6β-[N-methyl-trans-3-(3-furyl)acrylamido]morphinan hydrochloride] | 5.8
5 | CN(C(=O)/C=C/c1ccoc1)[C@@H]1CC[C@@]2(O)[C@H]3Cc4ccc(O)c5c4[C@@]2(CCN3CC2CC2)[C@H]1O5.Cl [Reference Example 1, 17-cyclopropylmethyl-3,14β-dihydroxy-4,5α-epoxy-6β-[N-methyl-trans-3-(3-furyl)acrylamido]morphinan hydrochloride] | 3.7
6 | CN(C(=O)/C=C/c1ccoc1)[C@@H]1CC[C@@]2(O)[C@H]3Cc4ccc(O)c5c4[C@@]2(CCN3CC2CC2)[C@H]1O5.Cl [Example 2, 17-cyclopropylmethyl-3,14β-dihydroxy-4,5α-epoxy-6β-[N-methyl-trans-3-(3-furyl)acrylamido]morphinan hydrochloride] | 5.4
